Measured values taken from ChEMBL document CHEMBL1144475, “Design, synthesis, and evaluation of inhibitors for severe acute respiratory syndrome 3C-like protease based on phthalhydrazide ketones or heteroaromatic esters” (J Med Chem, 2007).
Non-standard residues stand in square brackets, D forms with d. Residues, ends and D or L forms follow the SMILES beside them. *: point of attachment. Ala(2-oxopyrrolidin-3S-yl) = N[C@@H](C[C@@H]1CCNC1=O)C(=O)O; X1 = Clc1cncc(O*)c1; Bn = c1ccc(C*)cc1

Each compound was assayed against Replicase polyprotein 1a (Severe acute respiratory syndrome-related coronavirus, UniProt P0C6U8) (assay: Inhibition of SARS coronavirus 3C-like protease).

Row | SMILES | IC50
1 | O=C(Oc1cncc(Cl)c1)c1ccc(-c2ccc(Cl)cc2)o1 | 63 nM
2 | O=C(Oc1cncc(Cl)c1)c1cc2ccccc2[nH]1 | 65 nM
3 | O=C(Oc1cncc(Br)c1)c1ccco1 | 50 nM
4 | O=C(Oc1cncc(Cl)c1)c1cc2ccccc2o1 | 170 nM
5 | O=C(Oc1cncc(Cl)c1)c1ccco1 | 60 nM
6 | O=C(Oc1cncc(Cl)c1)c1cc2ccccc2s1 | 95 nM
7 | O=C(Oc1cncc(Cl)c1)c1cscn1 | 270 nM

The compounds below were run against Replicase polyprotein 1a (Severe acute respiratory syndrome-related coronavirus) (UniProt P0C6U8) (assay: Inhibition of SARS coronavirus 3C-like protease at 1 uM).

Row | SMILES | inhibition
8 | O=C(Oc1cncc(Cl)c1)c1ccc(-c2ccc(Cl)cc2)o1 | 98%
9 | O=C(Oc1cncc(Cl)c1)c1cc2ccccc2[nH]1 | 99%
10 | O=C(Oc1cncc(Br)c1)c1ccco1 | 98%
11 | COc1cccc(C(=O)Oc2cncc(Cl)c2)c1 | 97%
12 | O=C(Oc1cncc(Cl)c1)c1cc2ccccc2s1 | 96%
13 | O=C(Oc1cncc(Cl)c1)c1cscn1 | 98%

Each compound was assayed against Replicase polyprotein 1a (Severe acute respiratory syndrome-related coronavirus) (UniProt P0C6U8) (assay: Inhibition of SARS coronavirus His-3C-like protease at 100 uM).

Row | SMILES | inhibition
14 | Cc1ncccc1OC(=O)c1cccs1 | < 10%
15 | O=C(Oc1cccnc1)c1cccs1 | 91%
16 | Cc1ccc(OC(=O)c2cccs2)nc1 | < 10%
17 | O=C(Oc1ccco1)c1cccnc1 | 80%
18 | O=C(OCc1cncc(Br)c1)c1ccco1 | 90%
19 | O=C(Cc1cncc(Br)c1)c1ccco1 | < 10%
20 | O=Cc1cccs1 | < 10%
21 | O=C(Oc1ccc(Cl)nc1)c1cccs1 | 13%
22 | O=Cc1ccc(-c2ccc(Cl)cc2)o1 | 70%
23 | O=Cc1ccco1 | 23%
24 | CC(=O)N[C@H](C(=O)N[C@H](C(=O)N[C@@H](CC(C)C)C(=O)N[C@@H](C[C@@H]1CCNC1=O)C(=O)c1cccs1)[C@@H](C)O)C(C)C | 23%
25 | Clc1cncc(OCc2ccco2)c1 | 11%
26 | O=Cc1cscn1 | 36%
27 | Cc1ccc(OC(=O)c2cccs2)c([N+](=O)[O-])n1 | 15%
28 | Cc1cccc(OC(=O)c2cccs2)n1 | 38%
29 | O=C(Oc1cccnc1Cl)c1cccs1 | 20%
30 | CC(=O)N[C@H](C(=O)N[C@H](C(=O)N[C@@H](CC(C)C)C(=O)N[C@@H](Cc1ccccc1)C(=O)Cn1[nH]c(=O)c2ccccc2c1=O)[C@@H](C)OCc1ccccc1)C(C)C | 72%
31 | Cc1ccc(OC(=O)c2cccs2)cn1 | < 10%
32 | O=C(Nc1ccccn1)c1cccs1 | < 10%
33 | O=C(Oc1cncc(Br)c1)c1ccco1 | 99%

Row | SMILES | inhibition
34 | O=C(Nc1cccnc1)c1cccs1 | 13%
35 | O=C(Nc1ccc(Cl)cn1)c1cccs1 | < 10%
36 | O=C(Oc1ccncc1)c1cccs1 | < 10%
37 | O=C(Oc1cncc(Cl)c1)c1ccc[nH]1 | 65%
38 | O=C(Oc1cncc(Cl)c1)c1cc2ccccc2o1 | 94%
39 | O=C(Oc1cncc(Cl)c1)c1ccco1 | 99%
40 | O=C(Nc1cccnc1Cl)c1cccs1 | < 10%
41 | O=C(Oc1cccc(Cl)c1)c1ccco1 | 40%
42 | O=C(Cc1cccnc1)c1cccs1 | < 10%
43 | O=Cc1cc2ccccc2[nH]1 | 39%
44 | O=S(=O)(Nc1cccnc1)c1cccs1 | < 10%
45 | CC(=O)N[C@H](C(=O)N[C@H](C(=O)N[C@@H](CC(C)C)C(=O)N[C@@H](C[C@@H]1CCNC1=O)C(=O)c1cccs1)[C@@H](C)OCc1ccccc1)C(C)C | < 10%
46 | O=C(Nc1ccncc1)c1cccs1 | < 10%
47 | O=C(Oc1ccccn1)c1cccs1 | 13%
48 | CC(=O)N[C@H](C(=O)N[C@H](C(=O)N[C@@H](CC(C)C)C(=O)N[C@@H](C[C@@H]1CCNC1=O)C(=O)Oc1cncc(Cl)c1)[C@@H](C)OCc1ccccc1)C(C)C (Ac-VT(Bn)L[Ala(2-oxopyrrolidin-3S-yl)]-X1) | < 10%
49 | O=C(Oc1cncc(Cl)c1)c1ccccc1 | 92%
50 | O=C(Nc1ccc(F)cn1)c1cccs1 | < 10%
51 | O=C(Oc1cccc(Cl)n1)c1cccs1 | < 10%
52 | O=C(Oc1cncc(Cl)c1)c1ccoc1 | 89%
53 | O=C(OCc1cccnc1)c1cccs1 | 19%
